Assay results reported in patent publication US12209081B2 (Katholieke Universiteit Leuven, priority 2020, dated 2025).

molecular target: mouse TRPM3α2 (mTRPM3) ion channel (Mus musculus (Mouse), UniProt J9SQF3); experiment: TRPM3 ion channel driven Ca2+ uptake, Fluo-4 AM assay, mTRPM3alpha2 overexpressing flip-in HEK293 cells stimulated with pregnenolone sulfate; format: cell-based; settings: PS 50 μM, cpds 300-399
Experimental: Part B Monitoring the TRPM3 Ion Channel Driven Ca^2+ Uptake.
In order to monitor the inhibition of the mouse TRPM3α2 (mTRPM3) ion channel by the compounds of the invention, a cellular system making use of an mTRPM3alpha2 or hTRPM3 overexpressing cell line (flip-in HEK293) was used. The TRPM3 channel was stimulated/opened with Pregnenolone sulfate (PS) (50 μM) which results in Ca^2+ influx.
For mTRPM3, the intracellular Ca^2+ was measured with a Calcium responsive dye. Fluor-4 AM ester (Invitrogen). Cells were cultured until a confluence of 80-90%, washed with Versene (Invitrogen) and detached from the surface by a short incubation with 0.05% Trypsin (Invitrogen). The trypsination process was stopped by the addition of complete cell culture medium (DMEM, glutamax, 10% FCS,NEAA,Pen-Strep). Cells were collected and resuspended in Krebs buffer without Calcium at RT.
Prior the cell seeding (±2000 cells/well into a black, 384 well plate (Greiner)) the diluted compound was added in the assay plate, together with the PS dissolved in Krebs buffer containing Calcium. […] Directly after cell addition the plates were read on an Envision fluorescence reader (Perkin Elmer) by an Excitation of 485 nm and emission at 535 nm.
Channel inhibition was calculated compared to a non-PS stimulated control versus a condition stimulated with PS (50 μM) with vehicle. The ability of the compounds of the invention to inhibit this activity was determined as: Percentage inhibition=[1-((RFU determined for sample with test compound present—RFU determined for sample with positive control inhibitor) divided by (RFU determined in the presence of vehicle—RFU determined for sample with positive control inhibitor))]*100.

Sequence of mouse TRPM3α2 (mTRPM3) ion channel (J9SQF3 other isoform, or with tags, fused parts or gaps): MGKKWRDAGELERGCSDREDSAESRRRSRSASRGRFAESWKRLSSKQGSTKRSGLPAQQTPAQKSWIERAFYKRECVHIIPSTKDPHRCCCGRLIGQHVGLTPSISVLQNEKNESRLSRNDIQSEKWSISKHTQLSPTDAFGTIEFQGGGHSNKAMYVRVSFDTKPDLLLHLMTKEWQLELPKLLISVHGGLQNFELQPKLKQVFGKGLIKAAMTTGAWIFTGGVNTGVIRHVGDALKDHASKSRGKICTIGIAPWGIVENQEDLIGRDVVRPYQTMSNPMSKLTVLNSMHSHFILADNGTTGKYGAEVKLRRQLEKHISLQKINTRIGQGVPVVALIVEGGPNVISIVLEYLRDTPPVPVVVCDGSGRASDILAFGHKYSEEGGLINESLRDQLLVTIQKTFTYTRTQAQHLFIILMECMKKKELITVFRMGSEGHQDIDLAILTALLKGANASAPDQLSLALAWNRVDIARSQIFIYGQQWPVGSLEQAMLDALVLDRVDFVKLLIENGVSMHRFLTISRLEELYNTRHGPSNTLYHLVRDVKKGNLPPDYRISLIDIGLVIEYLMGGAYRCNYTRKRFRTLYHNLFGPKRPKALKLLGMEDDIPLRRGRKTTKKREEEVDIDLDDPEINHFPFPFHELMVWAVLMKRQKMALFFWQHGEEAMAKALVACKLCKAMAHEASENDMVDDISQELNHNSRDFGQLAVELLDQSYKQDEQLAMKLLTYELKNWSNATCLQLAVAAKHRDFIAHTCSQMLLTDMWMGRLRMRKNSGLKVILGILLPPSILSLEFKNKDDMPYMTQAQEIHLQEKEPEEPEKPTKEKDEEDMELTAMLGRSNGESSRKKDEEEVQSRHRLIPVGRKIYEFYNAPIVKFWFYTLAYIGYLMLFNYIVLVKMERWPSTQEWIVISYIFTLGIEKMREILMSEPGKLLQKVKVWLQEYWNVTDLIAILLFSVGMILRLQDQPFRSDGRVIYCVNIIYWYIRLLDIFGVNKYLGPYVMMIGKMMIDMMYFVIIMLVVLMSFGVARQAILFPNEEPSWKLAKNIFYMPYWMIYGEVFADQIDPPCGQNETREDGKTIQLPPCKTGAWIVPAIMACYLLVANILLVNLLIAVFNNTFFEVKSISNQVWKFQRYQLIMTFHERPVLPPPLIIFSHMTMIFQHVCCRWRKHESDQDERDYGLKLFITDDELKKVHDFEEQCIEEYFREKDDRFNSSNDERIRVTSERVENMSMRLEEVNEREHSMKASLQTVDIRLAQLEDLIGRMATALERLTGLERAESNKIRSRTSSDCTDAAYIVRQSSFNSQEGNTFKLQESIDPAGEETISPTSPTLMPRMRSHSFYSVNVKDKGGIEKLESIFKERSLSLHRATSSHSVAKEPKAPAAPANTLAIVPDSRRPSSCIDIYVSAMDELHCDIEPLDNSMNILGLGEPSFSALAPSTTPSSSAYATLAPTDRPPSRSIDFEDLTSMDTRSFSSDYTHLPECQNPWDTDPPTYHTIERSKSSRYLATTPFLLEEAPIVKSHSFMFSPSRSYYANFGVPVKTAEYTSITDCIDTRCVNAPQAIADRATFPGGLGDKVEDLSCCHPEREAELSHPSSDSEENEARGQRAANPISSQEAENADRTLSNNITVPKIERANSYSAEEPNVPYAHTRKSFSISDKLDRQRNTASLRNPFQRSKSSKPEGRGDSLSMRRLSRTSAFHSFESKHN

IC50 [µM] | SMILES
< 1 | Cc1oc2ccc(OCc3ccnn3CC(F)F)cc2c1C(=O)NC1(CO)CCCNC1=O (single isomer, unassigned) [332-En 1, 5-((1-(2,2-difluoroethyl)-1H-pyrazol-5-yl)methoxy)-N-(3-(hydroxymethyl)-2-oxopiperidin-3-yl)-2-methylbenzofuran-3-carboxamide]

same assay, conditions: PS (50 μM) stimulated, cpd 001-199

SMILES | IC50 [µM]
Cc1cc2oc(C)c(C(=O)NC3CCNCC3(F)F)c2cc1OCc1cccnc1C(F)(F)F (single isomer, unassigned) [179-En 1, N-(3,3-difluoropiperidin-4-yl)-2,6-dimethyl-5-((2-(trifluoromethyl)pyridin-3-yl)methoxy)benzo-furan-3-carboxamide] | 1 to 20
Cc1cc2oc(C)c(C(=O)NC3CCNCC3(F)F)c2cc1OCc1cccnc1C(F)(F)F (single isomer, unassigned) [179-En 2, N-(3,3-difluoropiperidin-4-yl)-2,6-dimethyl-5-((2-(trifluoromethyl)pyridin-3-yl)methoxy)benzo-furan-3-carboxamide] | > 20
Cc1oc2ccc(OCc3cccnc3C(F)(F)F)c(C#N)c2c1C(=O)NC1CCNCC1(F)F (single isomer, unassigned) [191-En 1, 4-cyano-N-(3,3-difluoropiperidin-4-yl)-2-methyl-5-((2-(trifluoromethyl)pyridin-3-yl)methoxy) -benzofuran-3-carboxamide] | > 20
Cc1oc2cc(C#N)c(OCc3cccnc3C(F)(F)F)cc2c1C(=O)NC1CCNCC1(F)F (single isomer, unassigned) [195-En 1, 6-cyano-N-(3,3-difluoropiperidin-4-yl)-2-methyl-5-((2-(trifluoromethyl)pyridin-3-yl)methoxy) -benzofuran-3-carboxamide] | > 20
Cc1oc2cc(C#N)c(OCc3cccnc3C(F)(F)F)cc2c1C(=O)NC1CCNCC1(F)F (single isomer, unassigned) [195-En 2, 6-cyano-N-(3,3-difluoropiperidin-4-yl)-2-methyl-5-((2-(trifluoromethyl)pyridin-3-yl)methoxy) -benzofuran-3-carboxamide] | > 20
Cc1oc2c(C#N)cc(OCc3cccnc3C(F)(F)F)cc2c1C(=O)NC1CCNCC1(F)F (single isomer, unassigned) [196-En 1, 7-cyano-N-(3,3-difluoropiperidin-4-yl)-2-methyl-5-((2-(trifluoro-methyl)pyridin-3-yl)methoxy)benzofuran-3-carboxamide] | > 20
Cc1oc2c(C#N)cc(OCc3cccnc3C(F)(F)F)cc2c1C(=O)NC1CCNCC1(F)F (single isomer, unassigned) [196-En 2, 7-cyano-N-(3,3-difluoropiperidin-4-yl)-2-methyl-5-((2-(trifluoro-methyl)pyridin-3-yl)methoxy)benzofuran-3-carboxamide] | 1 to 20
Cc1ncsc1COc1ccc2oc(C(F)F)c(C(=O)NC3CCN(CCO)C3=O)c2c1 (single isomer, unassigned) [198-En 1, 2-(difluoromethyl)-N-(1-(2-hydroxyethyl)-2-oxopyrrolidin-3-yl)-5-((4-methylthiazol-5-yl) -methoxy)benzofuran-3-carboxamide] | 1 to 20

The next lines start with the values.

IC50 [µM] | SMILES
< 1 | Cc1ncsc1COc1ccc2oc(C)c(C(=O)NC3CCN(CC(F)(F)F)C3)c2c1 (single isomer, unassigned) [116-En 1, 2-methyl-5-((4-methylthiazol-5-yl)methoxy)-N-(1-(2,2,2-trifluoroethyl)pyrrolidin-3-yl)benzofuran-3-carboxamide]
< 1 | Cc1oc2ccc(OCc3cccnc3C(F)(F)F)cc2c1C(=O)NC1CCN(CCO)C1=O (single isomer, unassigned) [120-En 1, N-(1-(2-hydroxyethyl)-2-oxopyrrolidin-3-yl)-2-methyl-5-((2 (trifluoromethyl)pyridin-3-yl)methoxy)benzofuran-3-carboxamide]
< 1 | Cc1ncsc1COc1ccc2oc(C)c(C(=O)NC3(CCO)CCOC3)c2c1 (single isomer, unassigned) [121-En 1, N-(3-(2-hydroxyethyl)tetrahydrofuran-3-yl)-2-methyl-5-((4-methylthiazol-5-yl)methoxy)benzo-furan-3-carboxamide]
< 1 | Cc1oc2ccc(OCc3cccnc3C(F)(F)F)cc2c1C(=O)NC1CN(C)CC1(F)F (single isomer, unassigned) [124-En 1, N-(4,4-difluoro-1-methylpyrrolidin-3-yl)-2-methyl-5-((2-(trifluoromethyl)pyridin-3-yl)methoxy) -benzofuran-3-carboxamide]
< 1 | Cc1oc2ccc(OCc3cccnc3C(F)(F)F)cc2c1C(=O)NC1COCC1O (single isomer, unassigned) [147-Dia 1-En 1, N-(4-hydroxytetrahydrofuran-3-yl)-2-methyl-5-((2-(trifluoromethyl)pyridin-3-yl)methoxy) -benzofuran-3-carboxamide]
< 1 | Cc1oc2ccc(OCc3cccnc3C(F)(F)F)cc2c1C(=O)NC1COCC1O (single isomer, unassigned) [147-Dia 1-En 2, N-(4-hydroxytetrahydrofuran-3-yl)-2-methyl-5-((2-(trifluoromethyl)pyridin-3-yl)methoxy) -benzofuran-3-carboxamide]
< 1 | Cc1oc2ccc(OCc3cccnc3C(F)(F)F)cc2c1C(=O)NC1CCN(CC(F)(F)F)C1 (single isomer, unassigned) [149-En 1, 2-methyl-N-(1-(2,2,2-trifluoroethyl)pyrrolidin-3-yl)-5-((2-(trifluoromethyl)pyridin-3-yl)methoxy) -benzofuran-3-carboxamide]
< 1 | Cc1oc2ccc(OCc3cccnc3C(F)(F)F)cc2c1C(=O)NC1CN(CC(F)(F)F)CC1(F)F (single isomer, unassigned) [157-En 1, N-(4,4-difluoro-1-(2,2,2-trifluoroethyl)pyrrolidin-3-yl)-2-methyl-5-((2-(trifluoromethyl)pyridin-3-yl)methoxy)benzofuran-3-carboxamide]
< 1 | Cc1ncsc1COc1ccc2oc(C)c(C(=O)NC3CCN(CCO)C3=O)c2c1 (single isomer, unassigned) [160-En 1, N-(1-(2-hydroxyethyl)-2-oxopyrrolidin-3-yl)-2-methyl-5-((4-methylthiazol-5-yl)methoxy)benzo-furan-3-carboxamide]
< 1 | Cc1ncsc1COc1ccc2oc(C)c(C(=O)NC3CN(C(=O)OCC(F)(F)F)CC3(F)F)c2c1 (single isomer, unassigned) [172-En 1, 2,2,2-trifluoroethyl 3,3-difluoro-4-(2-methyl-5-((4-methylthiazol-5-yl)methoxy)benzofuran-3-carboxamido)pyrrolidine-1-carboxylate]
< 1 | O=C(NC1CCNCC1(F)F)c1c(C(F)F)oc2ccc(OCc3cccnc3C(F)(F)F)cc12 (single isomer, unassigned) [199-En 1, 2-(difluoromethyl)-N-(3,3-difluoropiperidin-4-yl)-5-((2-(trifluoromethyl)pyridin-3-yl)methoxy) -benzofuran-3-carboxamide]

same assay, conditions: PS (50 μM) stimulated, cpds. 400-499

IC50 [µM] | SMILES
< 1 | Cc1ncsc1COc1ccc2oc(C)c(C(=O)NC(CO)CN(C)C)c2c1 (single isomer, unassigned) [413-En 1, N-(1-(dimethylamino)-3-hydroxypropan-2-yl)-2-methyl-5-((4-methylthiazol-5-yl)methoxy)benzofuran-3-carboxamide]
